From article PMC9926475 (ACS chemical neuroscience, 2022)

Tests used:
[1] = Pharmacokinetic studies in plasma and brain of mice after i.p. injection; format: in vivo, mouse; conditions: for Cmax (mean ± SEM) Brain / B:P ratio (brain to plasma AUC ratio) / t1/2 Brain (terminal half-life) / t1/2 Plasma (terminal half-life): i.p. 5 mg/kg; for Cmax (mean ± SEM) Brain: normalized to free base dose
[2] = i.p. administration to mice, ref [19], cited from earlier work
rats = conditions: 10 mg/kg, i.p., ref [26]; cited from earlier work
male mice = assay: Forced swim test immobility time 24 h after i.p. treatment; format: in vivo, mouse
mice = conditions: i.p., cited from earlier work
[3] = target: N-methyl-D-aspartate receptor (NMDAR); conditions: read-out: Ki, potency to bind or inhibit NMDARs; ref [4],[19],[31]-[35]; cited from earlier work
[4] = i.p.; ref [4]; cited from earlier work
[5] = standard t-test, F female, M male, NS not statistically different

N[C@@]1(c2ccccc2Cl)CCC[C@@H](O)C1=O [(2R,6R)-HNK, (2R,6R)-hydroxynorketamine]
Cmax (mean ± SEM) Brain ([1]; female CD-1 mice): 530 ± 17.2 ng/g•mg/kg | B:P ratio (brain to plasma AUC ratio) ([1]; female mice): 1.3 | t1/2 Brain (terminal half-life) ([1]; female mice): 34 min | t1/2 Plasma (terminal half-life) ([1]; female mice): 36 min | Cmax (mean ± SEM) Brain ([1]; male CD-1 mice): 380 ± 19.3 ng/g•mg/kg | B:P ratio (brain to plasma AUC ratio) ([1]; male mice): 1.3 | t1/2 Brain (terminal half-life) ([1]; male mice): 34 min | t1/2 Plasma (terminal half-life) ([1]; male mice): 38 min | Sex-dependent difference: Brain Total exposure (AUC) [1, 5]: F > M | Sex-dependent difference: Plasma Total exposure (AUC) [1, 5]: F > M | Time of peak plasma levels ([2]; plasma collected at 2.5 and 5 min post-injection): 2.5 min | Time of peak brain levels [2]: 5 min | Reversal of learned helplessness (rats): reversed learned helplessness | Minimal effective dose to reduce immobility time in the forced swim test (male mice; 24 h after injection): 10 mg/kg | Shape of dose response curve for forced swim test immobility (male mice; tested range up to 100 mg/kg): did not demonstrate U-shaped dose responses | Lowest dose reducing forced swim test immobility time (mice; ref [4]): 5 mg/kg | Effect on forced swim test immobility time (mice; mice, 10 mg/kg, ref [17]): reduced forced swim test immobility time | Ki [3]: > 100 µM | Lowest dose reducing escape failures in the learned helplessness test [4]: 3 mg/kg
